Measured values: patent US10940139B2, “Compounds that interact with the Ras superfamily for the treatment of cancers, inflammatory diseases, rasopathies, and fibrotic disease” (Shy Therapeutics LLC, priority 2017, dated 2021)

Legend:
[1] = biological target: Rho-A (Homo sapiens (Human), UniProt P61586); experiment: Rho inhibition assay (labeled GTP); format: binding; settings: read-out: Rho-A % Inh.
[2] = biological target: KRas G12D/Q61H double mutant (Homo sapiens (Human), UniProt P01116, G12D/Q61H); experiment: Ras GTP binding domain inhibition assay (labeled GTP); settings: at 20 μM; read-out: KRas G12D Q61H % Inh.
In short: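 Inhibition of labeled GTP binding is measured on immobilized His-KRas protein in Tris buffer pH 7.5 with 1 mM MgCl2 and 1 mM DTT.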

[3] = biological target: Rac-1 (Homo sapiens (Human), UniProt P63000); experiment: Rac inhibition assay (labeled GTP); format: binding; settings: read-out: Rac-1 % Inh.

Chain of KRas G12D/Q61H double mutant (P01116-2 other isoform, or with tags, fused parts or gaps G12D/Q61H): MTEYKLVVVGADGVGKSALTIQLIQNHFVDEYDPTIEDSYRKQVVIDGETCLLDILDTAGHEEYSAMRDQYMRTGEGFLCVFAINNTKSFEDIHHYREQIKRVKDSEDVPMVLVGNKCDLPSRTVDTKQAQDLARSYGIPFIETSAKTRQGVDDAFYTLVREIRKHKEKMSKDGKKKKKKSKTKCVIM
Chain of Rho-A (P61586 whole entry, the tested form may be a part): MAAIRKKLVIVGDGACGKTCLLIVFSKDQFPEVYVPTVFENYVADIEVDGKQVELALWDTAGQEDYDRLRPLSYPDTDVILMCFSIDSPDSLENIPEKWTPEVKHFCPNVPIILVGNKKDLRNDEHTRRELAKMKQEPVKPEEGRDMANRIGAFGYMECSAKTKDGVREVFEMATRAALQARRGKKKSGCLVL

Structure (SMILES): O=C(c1csc2c(O)nc(-c3ccccn3)nc12)N1CCOC(c2cccc(F)c2)C1 (stereo not drawn) [drawing 3630]
- inhibition at 20 µM [1]: 1 to 25%
- inhibition at 20 µM [2]: 25 to 50%
- inhibition at 20 µM [3]: 25 to 50%

Structure (SMILES): O=C(c1csc2c(O)nc(-c3ccccn3)nc12)N1CCOC(c2nccs2)C1 (stereo not drawn) [drawing 3631]
- inhibition at 20 µM [1]: 76 to 100%
- inhibition at 20 µM [2]: 25 to 50%
- inhibition at 20 µM [3]: 76 to 100%

Structure (SMILES): COc1ccnc(-c2nc(O)c3c(Br)csc3n2)c1 [drawing 3632]
- inhibition at 20 µM [1]: 25 to 50%
- inhibition at 20 µM [2]: 25 to 50%
- inhibition at 20 µM [3]: 25 to 50%

Structure (SMILES): O=C(NCCc1cccnc1)c1csc2nc(-c3ccccn3)nc(N3CCOCC3)c12 [drawing 3633]
- inhibition at 20 µM [1]: 51 to 75%
- inhibition at 20 µM [2]: 1 to 25%
- inhibition at 20 µM [3]: 51 to 75%

Structure (SMILES): COc1ccc(CCNC(=O)c2csc3nc(-c4ccccn4)nc(N4CCOCC4)c23)cn1 [drawing 3634]
- inhibition at 20 µM [1]: 51 to 75%
- inhibition at 20 µM [2]: 25 to 50%
- inhibition at 20 µM [3]: 51 to 75%

Structure (SMILES): COc1ccc(CCN(C)C(=O)c2csc3nc(-c4ccccn4)nc(N4CCOCC4)c23)cn1 [drawing 3635]
- inhibition at 20 µM [1]: 25 to 50%
- inhibition at 20 µM [2]: 0%
- inhibition at 20 µM [3]: 25 to 50%

Structure (SMILES): COc1cc(CCNC(=O)c2csc3nc(-c4ccccn4)nc(N4CCOCC4)c23)ccn1 [drawing 3636]
- inhibition at 20 µM [1]: 25 to 50%
- inhibition at 20 µM [2]: 1 to 25%
- inhibition at 20 µM [3]: 51 to 75%

Structure (SMILES): COc1ncc(CCNC(=O)c2csc3nc(-c4ccccn4)nc(N4CCOCC4)c23)cn1 [drawing 3637]
- inhibition at 20 µM [1]: 51 to 75%
- inhibition at 20 µM [2]: 1 to 25%
- inhibition at 20 µM [3]: 51 to 75%

Structure (SMILES): O=C(NCCc1cncs1)c1csc2nc(-c3ccccn3)nc(N3CCOCC3)c12 [drawing 3638]
- inhibition at 20 µM [1]: 25 to 50%
- inhibition at 20 µM [2]: 1 to 25%
- inhibition at 20 µM [3]: 51 to 75%

Structure (SMILES): N#Cc1ccc(CCNC(=O)c2csc3nc(-c4ccccn4)nc(N4CCOCC4)c23)cc1 [drawing 3639]
- inhibition at 20 µM [1]: 25 to 50%
- inhibition at 20 µM [2]: 1 to 25%
- inhibition at 20 µM [3]: 25 to 50%

Structure (SMILES): CC(C)(C(=O)Nc1ccnc(-c2ccccn2)n1)c1ccc(C#N)cc1 [drawing 3640]
- inhibition at 20 µM [1]: 25 to 50%
- inhibition at 20 µM [2]: 1 to 25%
- inhibition at 20 µM [3]: 51 to 75%

Structure (SMILES): CC(C)(C(=O)Nc1nc(-c2ccccn2)nc2sccc12)c1ccc(C#N)cc1 [drawing 3641]
- inhibition at 20 µM [1]: 51 to 75%
- inhibition at 20 µM [2]: 0%
- inhibition at 20 µM [3]: 76 to 100%

Structure (SMILES): O=C(c1csc2c(O)nc(-c3ccccn3)nc12)N1CCN(c2cccc(F)c2)CC1 [drawing 3642]
- inhibition at 20 µM [1]: 76 to 100%
- inhibition at 20 µM [2]: 25 to 50%
- inhibition at 20 µM [3]: 76 to 100%

Structure (SMILES): O=C(c1csc2c(O)nc(-c3ccccn3)nc12)N1CCN(c2ccc(F)cc2)CC1 [drawing 3643]
- inhibition at 20 µM [1]: 51 to 75%
- inhibition at 20 µM [2]: 0%
- inhibition at 20 µM [3]: 51 to 75%

Structure (SMILES): N#Cc1cccc(N2CCN(C(=O)c3csc4c(O)nc(-c5ccccn5)nc34)CC2)c1 [drawing 3644]
- inhibition at 20 µM [1]: 51 to 75%
- inhibition at 20 µM [2]: 1 to 25%
- inhibition at 20 µM [3]: 51 to 75%

Structure (SMILES): N#Cc1ccc(N2CCN(C(=O)c3csc4c(O)nc(-c5ccccn5)nc34)CC2)cc1 [drawing 3645]
- inhibition at 20 µM [1]: 51 to 75%
- inhibition at 20 µM [2]: 0%
- inhibition at 20 µM [3]: 51 to 75%

Structure (SMILES): COc1cc(OC)cc(N2CCN(C(=O)c3csc4c(O)nc(-c5ccccn5)nc34)CC2)c1 [drawing 3646]
- inhibition at 20 µM [1]: 25 to 50%
- inhibition at 20 µM [2]: 0%
- inhibition at 20 µM [3]: 25 to 50%

Structure (SMILES): COc1cc(N2CCN(C(=O)c3csc4c(O)nc(-c5ccccn5)nc34)CC2)cc(OC)c1OC [drawing 3647]
- inhibition at 20 µM [1]: 25 to 50%
- inhibition at 20 µM [2]: 0%
- inhibition at 20 µM [3]: 1 to 25%

Structure (SMILES): COc1ccc(N2CCN(C(=O)c3csc4c(O)nc(-c5ccccn5)nc34)CC2)c(OC)c1 [drawing 3648]
- inhibition at 20 µM [1]: 51 to 75%
- inhibition at 20 µM [2]: 25 to 50%
- inhibition at 20 µM [3]: 76 to 100%

Structure (SMILES): O=C(c1csc2c(O)nc(-c3ccccn3)nc12)N1CCN(c2ccc(F)cc2F)CC1 [drawing 3649]
- inhibition at 20 µM [1]: 51 to 75%
- inhibition at 20 µM [2]: 51 to 75%
- inhibition at 20 µM [3]: 76 to 100%

Structure (SMILES): O=C(c1csc2c(O)nc(-c3ccccn3)nc12)N1CCN(Cc2ccccc2)CC1 [drawing 3651]
- inhibition at 20 µM [1]: 76 to 100%
- inhibition at 20 µM [2]: 25 to 50%
- inhibition at 20 µM [3]: 51 to 75%

Structure (SMILES): O=C(c1csc2c(O)nc(-c3ccccn3)nc12)N1CCN(Cc2ccc(O)cc2)CC1 [drawing 3653]
- inhibition at 20 µM [1]: 25 to 50%
- inhibition at 20 µM [2]: 1 to 25%
- inhibition at 20 µM [3]: 51 to 75%

Structure (SMILES): O=C(c1csc2c(O)nc(-c3ccccn3)nc12)N1CCN(Cc2ccc(O)c(Cl)c2)CC1 [drawing 3654]
- inhibition at 20 µM [1]: 76 to 100%
- inhibition at 20 µM [2]: 25 to 50%
- inhibition at 20 µM [3]: 76 to 100%

Structure (SMILES): O=C(c1csc2c(O)nc(-c3ccccn3)nc12)N1CCOC(c2ccccc2)C1 (stereo not drawn) [drawing 3655]
- inhibition at 20 µM [1]: 51 to 75%
- inhibition at 20 µM [2]: 1 to 25%
- inhibition at 20 µM [3]: 25 to 50%

Structure (SMILES): COc1ccccc1C1CN(C(=O)c2csc3c(O)nc(-c4ccccn4)nc23)CCO1 (stereo not drawn) [drawing 3656]
- inhibition at 20 µM [1]: 76 to 100%
- inhibition at 20 µM [2]: 51 to 75%
- inhibition at 20 µM [3]: 76 to 100%
